In one test the test system is bovine NP cells. Description: Effect of TNF-α on mineralization, Alizarin Red and von Kossa staining. The format is cell-based.
Another test has as its system BNP cells. Nature of the test: Effect of IL-1β on mineralization, Alizarin Red staining. The format is cell-based, bovine. Conditions: IL-1β 0.01 and 2 ng/ml, 7 and 10 days. As to the method: (§1) Cells from Example 2 were grown in mineralization medium in the presence or absence of a low dose of […] (0.01 ng/ml) or a high dose (2 ng/ml) (R&D Systems). Cells were analyzed by Alizarin Red staining at 7 and 10 days as previously described. RT-PCR analysis of ANK and ENPP was also performed as previously described, using primers specific for ANKH and ENPP1.

The test system of another test is ANKH. Nature of the test: RT-PCR of ANK after IL-1β treatment. The format is cell-based, bovine. Conditions: IL-1β 0.01 and 2 ng/ml; naïve cells and TNAP-infected BNP cells; day 3; FIG. 23. As to the method:
as §1

For another test, the system named is ENPP1. Nature of the test: RT-PCR of ENPP after IL-1β treatment. The format is cell-based, bovine. Conditions: IL-1β 0.01 and 2 ng/ml; naïve cells and TNAP-infected BNP cells; day 3; FIG. 23. As for the experimental part: as §1

Description for bovine NP cells: The cells from Example 2 (TNAP infected and naïve) were grown in high density cultures in a medium comprising DMEM high glucose (4.5 g/L) plus 1% PenStrep, and 10% FBS, and 50 μ/ml ascorbic acid, and 5 mM of β-glycerophosphate (mineralization medium). Some cells were also stimulated with 10 ng/mL of hfTNF-α.
The cells were stained with Alizarin Red and von Kossa stain after 7, 14, and 21 days.

In the case of TNF-α, the “mineralization of NP cells stimulated with TNF-α only” value with bovine NP cells (10 ng/mL TNF-α, cells without TNAP) is “did not show mineralization”. Further, the “staining of TNAP infected cells stimulated with TNF-α” value in the test with bovine NP cells (10 ng/mL TNF-α, versus unstimulated TNAP infected cells, FIG. 10) is given as “darker”. Moreover, in the test on bovine NP cells (TNAP overexpressing cells stimulated with TNF-α, average over three weeks, FIG. 11), the “more Alizarin Red staining than TNAP alone” value stood at 45%.

Regarding “IL-1β: interleukin 1β (R&D Systems) added at 0.01 or 2 ng/ml”, in the test with BNP cells, the “Alizarin Red staining of NP cells transduced with LacZ” value is reported as “no observable change”. Also, the “calcium staining with Alizarin Red of TNAP-infected BNP cell cultures” value in the test on BNP cells (mineralization medium, FIGS. 21, 22) is “dose-dependent increase”. Further, the ANK transcripts entry in the test with ANKH is listed as “dose-dependent decrease”. Besides, the ENPP transcripts entry in the test with ENPP1 is recorded as “dose-dependent decrease”.

Source of the values: patent publication US11992517B2, “Compositions and methods for promoting the mineralization of biological tissue” (NEW YORK SOCIETY FOR THE RUPTURED AND CRIPPLED MAINTAINING …, priority 2013, dated 2024).
